According to the supplement of paper PMC10307832:

Key:
Test in all cases: relative viability (nuclei count vs DMSO), 5 days (fraction); higher = more cells survive
FH535 + Lapatinib = compound: CC1=C(C=CC(=C1)[N+](=O)[O-])NS(=O)(=O)C2=C(C=CC(=C2)Cl)Cl [FH535] + CS(=O)(=O)CCNCc1ccc(-c2ccc3ncnc(Nc4ccc(OCc5cccc(F)c5)c(Cl)c4)c3c2)o1 [Lapatinib] (partner 2 µM)
Outline: (§1)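 Relative viability divides the nuclei count in treated wells by that in vehicle wells. Lung cancer cell lines were seeded in 1536-well plates, dosed by pin tool the next day, and fixed and stained after 5 days in one step with final 0.05% Triton X-100, 1% formaldehyde and 1 ug/ml Hoechst. Dosing was a single drug or a fixed anchor-drug dose plus five library-drug doses (not always all listed) in √10 steps, and values are medians of duplicate plates imaged at 4×.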

FH535 + Pemetrexed = compound: CC1=C(C=CC(=C1)[N+](=O)[O-])NS(=O)(=O)C2=C(C=CC(=C2)Cl)Cl [FH535] + Nc1nc2[nH]cc(CCc3ccc(C(=O)N[C@@H](CCC(=O)O)C(=O)O)cc3)c2c(=O)[nH]1 [Pemetrexed] (partner 0.2 µM)
Outline: as §1

FH535 + Bortezomib = compound: CC1=C(C=CC(=C1)[N+](=O)[O-])NS(=O)(=O)C2=C(C=CC(=C2)Cl)Cl [FH535] + CC(C)C[C@H](NC(=O)[C@H](Cc1ccccc1)NC(=O)c1cnccn1)B(O)O [Bortezomib] (partner 0.002 µM)
Outline: as §1

FH535 + Palbociclib = compound: CC1=C(C=CC(=C1)[N+](=O)[O-])NS(=O)(=O)C2=C(C=CC(=C2)Cl)Cl [FH535] + CC(=O)c1c(C)c2cnc(Nc3ccc(N4CCNCC4)cn3)nc2n(C2CCCC2)c1=O [Palbociclib] (partner 0.5 µM)
Outline: as §1

FH535 + Pictilisib = compound: CC1=C(C=CC(=C1)[N+](=O)[O-])NS(=O)(=O)C2=C(C=CC(=C2)Cl)Cl [FH535] + CS(=O)(=O)N1CCN(Cc2cc3nc(-c4cccc5[nH]ncc45)nc(N4CCOCC4)c3s2)CC1 [Pictilisib] (partner 1 µM)
Outline: as §1

Cell Line	relative viability (FH535 + Lapatinib; first compound 0.04 µM)	relative viability (FH535 + Lapatinib; first compound 0.1265 µM)	relative viability (FH535 + Lapatinib; first compound 0.4 µM)	relative viability (FH535 + Lapatinib; first compound 1.265 µM)	relative viability (FH535 + Pemetrexed; first compound 0.04 µM)	relative viability (FH535 + Pemetrexed; first compound 0.1265 µM)	relative viability (FH535 + Pemetrexed; first compound 0.4 µM)	relative viability (FH535 + Pemetrexed; first compound 1.265 µM)	relative viability (FH535 + Bortezomib; first compound 0.04 µM)	relative viability (FH535 + Bortezomib; first compound 0.1265 µM)	relative viability (FH535 + Bortezomib; first compound 0.4 µM)	relative viability (FH535 + Bortezomib; first compound 1.265 µM)	relative viability (FH535 + Palbociclib; first compound 0.04 µM)	relative viability (FH535 + Palbociclib; first compound 0.1265 µM)	relative viability (FH535 + Palbociclib; first compound 0.4 µM)	relative viability (FH535 + Palbociclib; first compound 1.265 µM)	relative viability (FH535 + Pictilisib; first compound 0.04 µM)	relative viability (FH535 + Pictilisib; first compound 0.1265 µM)	relative viability (FH535 + Pictilisib; first compound 0.4 µM)	relative viability (FH535 + Pictilisib; first compound 1.265 µM)
NCI-H1975	0.863	0.748	0.715	0.73	0.286	0.309	0.277	0.275	0.312	0.381	0.374	0.338	0.627	0.403	0.481	0.474	0.274	0.274	0.296	0.244
NCI-H1993	0.676	0.781	0.729	0.714	0.539	0.611	0.523	0.463	1.01	0.927	0.895	0.811	0.651	0.661	0.592	0.415	0.679	0.747	0.769	0.709
NCI-H2009	0.82	0.859	0.853	0.656	1	1	0.955	0.836	0.92	0.984	0.896	0.58	0.243	0.174	0.229	0.215	0.753	0.87	0.724	0.763
NCI-H2023	0.671	0.846	0.919	0.738	0.194	0.219	0.249	0.21	0.816	0.995	1.03	0.726	0.383	0.369	0.404	0.331	0.209	0.226	0.252	0.231
NCI-H2085	0.744	0.686	0.692	0.573	0.926	1.02	0.804	0.677	1.14	0.917	0.977	0.819	0.507	0.45	0.448	0.365	0.407	0.568	0.481	0.486
NCI-H2087	0.918	0.825	0.868	0.6	0.656	0.694	0.663	0.624	0.7	0.57	0.719	0.528	0.23	0.176	0.21	0.158	0.885	0.885	0.731	0.52
